Results from US20170283426A1, “COMPOUNDS FOR THE INHIBITION OF CYCLOPHILINS AND USES THEREOF” (Merck Patent GmbH, priority 2016, published 2017).

Legend:
CypD [1] = molecular target: T1, CypD (Homo sapiens, UniProt P30405); assay: CypD binding assay, competition Fluorescence-Polarisation with fluorescine labelled cyclosporin
Experimental: The binding capacity of the compounds were measured using a competition Fluorescence-Polarisation based assay with fluorescine labelled cyclosporin. The protocol used was adapted from Hausch et al, Med Chem lett 2010, p 536.

CypD [2] = molecular target: T1, CypD; assay: SPR binding; settings: SPR surface; read-out: SPR CypD (KDss)
Description: Binding was confirmed on an SPR surface using a protocol adapted from Mori et al., J. Biomolecular Screening, 2009 p 419.

T1 sequence (P30405 30-207): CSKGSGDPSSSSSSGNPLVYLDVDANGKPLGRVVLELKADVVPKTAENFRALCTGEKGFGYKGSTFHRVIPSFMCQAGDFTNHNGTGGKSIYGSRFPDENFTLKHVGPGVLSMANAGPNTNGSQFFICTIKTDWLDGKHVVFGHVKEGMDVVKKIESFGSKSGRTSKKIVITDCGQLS

SMILES	IC50 (CypD [1]) [µM]	Kd (CypD [2]) [µM]
O=C(NCCc1cccc(C(F)(F)F)c1)C(=O)NCCc1ccc2c(c1)[C@H]1C[C@@H](N2)[C@H](O)CO1 [Compound 5, N1-(2-((2R,3S,6R)-3-hydroxy-2,3,4,6-tetrahydro-1H-2,6-methanobenzo[c][1,5]oxazocin-8-yl)ethyl)-N2-(3-(trifluoromethyl)phenethyl)oxalamide]	< 10	< 10
CSc1ccccc1[C@H]1CCCN1C(=O)C(=O)NCCc1ccc2c(c1)[C@H]1C[C@@H](N2)[C@H](O)CO1 [Compound 6, N-[2-((1R,9R,10S)-10-hydroxy-12-oxa-8-aza-tricyclo[7.3.1.02,7]trideca-2(7),3,5-trien-4-yl)-ethyl]-2-[(R)-2-(2-methylsulfanyl-phenyl)-pyrrolidin-1-yl]-2-oxo-acetamide]	10 to 100	10 to 100
O=C(NCc1ccc2c(c1)[C@@H]1C[C@H](N2)[C@H](O)CO1)C(=O)NC1CCCC1 [Compound 13, N-Cyclopentyl-N′-((1S,9S,10S)-10-hydroxy-12-oxa-8-aza-tricyclo[7.3.1.02,7]trideca-2,4,6-trien-4-ylmethyl)-oxalamide]	10 to 100	10 to 100
O=C(NCCc1ccc2c(c1)[C@H]1C[C@@H](N2)[C@H](O)CO1)C(=O)NCc1cccc(C(F)(F)F)c1 [Compound 11, N1-(2-((2R,3S,6R)-3-hydroxy-2,3,4,6-tetrahydro-1H-2,6-methanobenzo[c][1,5]oxazocin-8-yl)ethyl)-N2-(3-(trifluoromethyl)benzyl)oxalamide]	10 to 100	10 to 100
O=C(NCCc1cccc(C(F)(F)F)c1)C(=O)NCCc1ccc2c(c1)[C@@H]1C[C@H](N2)[C@H](O)CO1 [Compound 12, N1-(2-((2S,3S,6S)-3-hydroxy-2,3,4,6-tetrahydro-1H-2,6-methanobenzo[c][1,5]oxazocin-8-yl)ethyl)-N2-(3-(trifluoromethyl)phenethyl)oxalamide]	10 to 100	10 to 100
CC(C)(C)CNC(=O)C(=O)NCCc1ccc2c(c1)[C@@H]1C[C@H](N2)[C@H](O)CO1 [Compound 10, N1-(2-((2S,3S,6S)-3-hydroxy-2,3,4,6-tetrahydro-1H-2,6-methanobenzo[c][1,5]oxazocin-8-yl)ethyl)-N2-neopentyloxalamide]	10 to 100	10 to 100
O=C(NCCc1ccccc1)C(=O)NCCc1ccc2c(c1)[C@H]1C[C@@H](N2)[C@H](O)CO1 [Compound 3, N1-(2-((2R,3S,6R)-3-hydroxy-2,3,4,6-tetrahydro-1H-2,6-methanobenzo[c][1,5]oxazocin-8-yl)ethyl)-N2-phenethyloxalamide]	< 10	< 10
O=C(NCCc1ccccc1)C(=O)NCCc1ccc2c(c1)[C@@H]1C[C@H](N2)[C@H](O)CO1 [Compound 8, N1-(2-((2S,3S,6S)-3-hydroxy-2,3,4,6-tetrahydro-1H-2,6-methanobenzo[c][1,5]oxazocin-8-yl)ethyl)-N2-phenethyloxalamide]	10 to 100	10 to 100
O=C(NCCc1ccc2c(c1)[C@H]1C[C@@H](N2)[C@H](O)CO1)C(=O)N[C@@H]1C[C@H]2CC[C@@H]1C2 [Compound 2, N-Bicyclo[2.2.1]hept-2-yl-N′-[2-((1R,9R,10S)-10-hydroxy-12-oxa-8-aza-tricyclo[7.3.1.02,7]trideca-2,4,6-trien-4-yl)-ethyl]-oxalamide]	< 10	< 10
CC(C)CNC(=O)C(=O)NCCc1ccc2c(c1)[C@H]1C[C@@H](N2)[C@H](O)CO1 [Compound 4, N-1-(2-((2R,3S,6R)-3-hydroxy-2,3,4,6-tetrahydro-1H-2,6-methanobenzo[c][1,5]oxazocin-8-yl)ethyl)-N2-isobutyloxalamide]	< 10	< 10
